{
  "source": "paper PMC4026281",
  "about": "(Journal of neurochemistry, 2012)",
  "origin": "cited, not measured here",
  "system": "rat α6/3β2 chimeric nAChRs",
  "settings": "cited from earlier work",
  "data": [
    {"substance": "α-conotoxin MII [α-CtxMII]", "values": [
      {"measurement": "t1/2 of recovery from α-CtxMII inhibition, rat α6/3β2 chimeric nAChRs", "result": "> 20", "unit": "min"}
    ]}
  ]
}
